Results reported in US20120165309A1, “HETERO RING DERIVATIVE” (Astellas Pharma Inc., priority 2009, published 2012).

Tests used:
Human PI3Kα = molecular target: T1, Human PI3Kα (Homo sapiens, UniProt P42336); assay: PI3Kα enzyme inhibitory activity (Kinase-Glo Plus luminescence); type: biochemical; settings: Human PI3Kα 12 ng/well, phosphatidylinositol 0.2 μg/well, 37° C. for 3 hours
T1 construct: purchased Millipore Corporation 14-602
Method: 2. PI3Kα Enzyme Inhibitory Activity
Human PI3Kα (12 ng/well, Millipore Corporation, Catalogue No. 14-602), phosphatidylinositol (0.2 μg/well), and the test compound were mixed in a 384-well plate in a reaction buffer (50 mM Hepes, 10 mM NaCl, 10 mM MgCl2, 2 mM EGTA, 2 mM DTT, pH 7.3) (total 10 μl), and incubated at 37° C. for 3 hours. After the reaction, 10 μL of a Kinase-Glo Plus reagent (Promega, Catalogue No. V3772) was added thereto, and a luminescence was measured with a luminometer. The IC50 value of the compound was calculated, taking the inhibition rate without addition of the enzyme as 100% and the inhibition rate without addition of the test compound as 0%, by a logistic method.
(§1) In the Table, Ex represents Example Compound No. as described later, PI3Kδ represents the IC50 value (nM) of a PI3Kδ enzyme inhibitory activity, and PI3Kα represents the IC50 value (nM) of a PI3Kα enzyme inhibitory activity.

[1] = tested on: Spleen cells (B cell proliferation); assay: Rat B cell proliferation inhibition test (anti-rat IgM, [3H]thymidine); type: cell-based; settings: anti-rat IgM 3 μg/well, 48 hours culture, [3H]thymidine uptake
Method: 4. Rat B Cell Proliferation Inhibition Test
Spleen cells (1.0×10^5 cells/well) prepared from male LEW/CrlCrlj rats (Charles River Laboratories, Japan, Inc.), mouse F(ab′)2 fragment anti-rat IgM (3 μg/well, SouthernBiotech Associates, Inc., Catalogue No. 3082-14) and the test compound dissolved in DMSO (final DMSO concentration 0.1%) were mixed in a 96-well plate using a 10% FCS-containing RPMI-1640 culture medium (total 200 μL). They were cultured in a CO2 incubator for 48 hours and [^3H]thymidine (925 GBq/mmol, Moravek Biochemicals, Inc., Catalogue No. MT6038) was added thereto at 0.037 MBq/well at 4 hours before completion of culture. Cells were harvested in a GF/C glass filter using a cell harvester, and a radioactivity on the filter was measured using a liquid scintillation counter. The IC50 value of the compound was calculated, taking the dpm (disintegration per minute) without addition of IgM as an inhibition rate of 100% and the dpm without addition of the test compound as an inhibition rate of 0%, by a logistic method.

human PI3Kδ enzyme = molecular target: T2, human PI3Kδ enzyme (Homo sapiens, UniProt O00329); assay: PI3Kδ enzyme inhibitory activity (PI3-Kinase HTRF Assay kit); type: biochemical; settings: human PI3Kδ 10 ng/well, ATP 30 μM, PIP2 10 μM, room temperature 30 minutes
T2 construct: purchased Millipore Corporation 14-604
Method: 1. PI3Kδ Enzyme Inhibitory Activity
For the experiment, a PI3-Kinase HTRF Assay kit (Millipore Corporation, Catalogue No. 33-016) and a human PI3Kδ enzyme (Millipore Corporation, Catalogue No. 14-604) were used. The measurement method was in accordance with the appended instructions. The overview thereof is as follows.
PI3Kδ (10 ng/well), phosphatidylinositol-4,5-bisphosphate (10 μM), ATP (30 μM), and the test compound were mixed in a 384-well plate (total 20 μL), and incubated at room temperature for 30 minutes. EDTA and biotinylated phosphatidylinositol-3,4,5-triphosphate were added thereto to stop the reaction. Thereafter, a Europium labeled anti-GST antibody, a GST bond GRP1 PH domain, and streptavidin-APC were added thereto, followed by incubation overnight. An HTRF ratio was measured using an HTRF plate reader. The IC50 value of the compound was calculated, taking the inhibition rate without addition of the enzyme as 100% and the inhibition rate without addition of the test compound as 0%, by means of a logistic method.
as §1

T1 sequence (P42336 whole entry): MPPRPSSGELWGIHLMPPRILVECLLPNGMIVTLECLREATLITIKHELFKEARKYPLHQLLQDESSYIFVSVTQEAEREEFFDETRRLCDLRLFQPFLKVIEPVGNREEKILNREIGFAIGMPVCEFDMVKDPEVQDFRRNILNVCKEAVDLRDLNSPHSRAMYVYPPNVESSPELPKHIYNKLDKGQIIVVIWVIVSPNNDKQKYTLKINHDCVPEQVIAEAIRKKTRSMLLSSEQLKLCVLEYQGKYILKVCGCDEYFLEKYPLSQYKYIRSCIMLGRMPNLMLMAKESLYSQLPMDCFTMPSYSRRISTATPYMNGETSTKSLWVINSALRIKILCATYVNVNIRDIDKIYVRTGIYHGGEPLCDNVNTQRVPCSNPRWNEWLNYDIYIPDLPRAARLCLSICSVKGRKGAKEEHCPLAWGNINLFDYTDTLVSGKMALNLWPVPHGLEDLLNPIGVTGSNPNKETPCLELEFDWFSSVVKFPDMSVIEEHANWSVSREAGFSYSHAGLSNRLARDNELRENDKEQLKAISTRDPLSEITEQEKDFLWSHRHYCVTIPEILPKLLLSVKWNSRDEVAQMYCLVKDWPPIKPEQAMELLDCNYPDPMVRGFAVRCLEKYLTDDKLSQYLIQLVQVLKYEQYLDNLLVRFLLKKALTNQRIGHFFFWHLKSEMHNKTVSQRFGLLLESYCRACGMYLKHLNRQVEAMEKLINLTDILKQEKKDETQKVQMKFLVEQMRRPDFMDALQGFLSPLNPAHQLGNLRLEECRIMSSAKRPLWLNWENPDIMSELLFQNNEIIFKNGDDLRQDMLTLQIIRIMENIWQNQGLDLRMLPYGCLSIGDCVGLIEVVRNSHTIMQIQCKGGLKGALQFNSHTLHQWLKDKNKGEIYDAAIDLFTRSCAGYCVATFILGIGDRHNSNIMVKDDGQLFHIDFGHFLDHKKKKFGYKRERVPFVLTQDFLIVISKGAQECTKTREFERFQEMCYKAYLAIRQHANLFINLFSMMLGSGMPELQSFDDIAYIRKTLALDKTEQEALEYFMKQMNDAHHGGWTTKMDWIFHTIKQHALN
T1 sequence (P27986 whole entry partner): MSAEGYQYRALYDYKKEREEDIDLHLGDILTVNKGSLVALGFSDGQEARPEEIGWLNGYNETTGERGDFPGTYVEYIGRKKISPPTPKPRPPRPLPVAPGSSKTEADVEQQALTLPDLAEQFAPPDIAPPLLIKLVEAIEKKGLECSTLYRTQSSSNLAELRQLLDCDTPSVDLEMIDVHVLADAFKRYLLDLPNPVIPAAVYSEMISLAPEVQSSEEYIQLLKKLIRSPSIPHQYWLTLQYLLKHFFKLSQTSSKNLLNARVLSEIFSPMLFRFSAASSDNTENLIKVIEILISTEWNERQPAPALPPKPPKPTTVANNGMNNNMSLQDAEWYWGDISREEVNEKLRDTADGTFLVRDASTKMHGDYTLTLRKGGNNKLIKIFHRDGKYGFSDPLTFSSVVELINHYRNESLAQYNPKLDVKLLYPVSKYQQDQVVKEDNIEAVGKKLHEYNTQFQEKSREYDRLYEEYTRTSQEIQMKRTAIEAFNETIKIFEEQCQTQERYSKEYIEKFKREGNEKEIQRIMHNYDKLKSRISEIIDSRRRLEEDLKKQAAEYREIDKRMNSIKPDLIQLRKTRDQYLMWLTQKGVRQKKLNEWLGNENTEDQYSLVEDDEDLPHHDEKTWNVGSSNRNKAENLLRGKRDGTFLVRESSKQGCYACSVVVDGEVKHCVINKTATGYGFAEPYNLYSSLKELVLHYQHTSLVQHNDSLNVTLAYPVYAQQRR
T2 sequence (O00329 whole entry): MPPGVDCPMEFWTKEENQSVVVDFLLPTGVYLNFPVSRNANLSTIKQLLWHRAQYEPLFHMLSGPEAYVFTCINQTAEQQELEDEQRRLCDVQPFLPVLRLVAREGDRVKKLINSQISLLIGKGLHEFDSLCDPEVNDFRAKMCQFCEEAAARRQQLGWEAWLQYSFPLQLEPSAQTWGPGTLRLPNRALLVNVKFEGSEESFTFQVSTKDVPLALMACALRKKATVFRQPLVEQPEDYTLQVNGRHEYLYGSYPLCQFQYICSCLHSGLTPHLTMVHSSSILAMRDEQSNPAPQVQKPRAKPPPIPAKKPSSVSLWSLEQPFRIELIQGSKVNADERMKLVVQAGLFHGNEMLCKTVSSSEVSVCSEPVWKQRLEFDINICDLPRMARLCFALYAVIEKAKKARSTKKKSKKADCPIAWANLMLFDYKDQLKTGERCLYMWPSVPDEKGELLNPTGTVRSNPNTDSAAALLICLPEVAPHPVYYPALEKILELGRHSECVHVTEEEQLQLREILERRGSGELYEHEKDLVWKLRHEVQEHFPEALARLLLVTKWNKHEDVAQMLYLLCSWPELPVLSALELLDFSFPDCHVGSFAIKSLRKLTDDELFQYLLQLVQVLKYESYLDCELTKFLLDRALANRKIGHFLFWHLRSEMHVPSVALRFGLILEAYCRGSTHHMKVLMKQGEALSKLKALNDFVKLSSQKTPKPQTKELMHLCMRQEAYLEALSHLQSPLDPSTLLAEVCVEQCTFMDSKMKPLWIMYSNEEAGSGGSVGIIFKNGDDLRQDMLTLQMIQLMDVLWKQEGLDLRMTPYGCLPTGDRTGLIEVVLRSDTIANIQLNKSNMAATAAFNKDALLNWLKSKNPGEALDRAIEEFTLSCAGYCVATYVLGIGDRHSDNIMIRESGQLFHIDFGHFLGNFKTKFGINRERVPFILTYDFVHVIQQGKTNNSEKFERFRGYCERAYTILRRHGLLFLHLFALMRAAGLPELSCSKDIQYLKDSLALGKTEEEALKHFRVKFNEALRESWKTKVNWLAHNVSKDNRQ
T2 sequence (P27986 whole entry partner): as the sequence (P27986 whole entry partner) above

Row | SMILES | IC50 (Human PI3Kα) [nM] | IC50 [1] [nM] | IC50 (human PI3Kδ enzyme) [nM]
1 | CC(C)(O)CN(CC1CCC1)[C@H]1CC[C@H](CNc2nc(N3CCOCC3)cc(-n3c(C(F)F)nc4ccccc43)n2)CC1 [Example 441] | 5900 | 4.2 | 15
2 | COCC(C)N[C@H]1CC[C@H](CNc2nc(N3CCOCC3)cc(-n3c(C(F)F)nc4ccccc43)n2)CC1 (stereo partly shown) [Example 399] | 3200 | 3.4 | 22
3 | CN1CCC[C@H]1C(=O)N[C@H]1CC[C@H](Oc2cc(-n3c(C(F)F)nc4ccccc43)nc(N3CCOCC3)n2)CC1 [Example 500] | > 10000 | 2.7 | 14
4 | CN(CC(C)(C)O)[C@H]1CC[C@H](CNc2nc(N3CCOCC3)cc(-n3c(C(F)F)nc4ccccc43)n2)CC1 [Example 375] | 1600 | 1.2 | 12
5 | FC[C@H]1CCCN1[C@H]1CC[C@@H](CNc2cc(-n3c(C(F)F)nc4ccccc43)nc(N3CCOCC3)n2)CC1 [Example 510] | > 10000 | 18 | 36
6 | COCCN(CC(C)F)[C@H]1CC[C@H](CNc2nc(N3CCOCC3)cc(-n3c(C(F)F)nc4ccccc43)n2)CC1 (stereo partly shown) [Example 374] | 1200 | 2 | 6.4
7 | COCC(C)N(C)[C@H]1CC[C@H](CNc2nc(N3CCOCC3)cc(-n3c(C(F)F)nc4ccccc43)n2)CC1 (stereo partly shown) [Example 434] | 1900 | 1.3 | 4.3
8 | CCN(CC)[C@H]1CC[C@H](CNc2nc(N3CCOCC3)cc(-n3c(C(F)F)nc4ccccc43)n2)CC1 [Example 424] | 3600 | 1.7 | 6
9 | CN(CC(C)(C)O)[C@H]1CC[C@H](COc2cc(-n3c(C(F)F)nc4ccccc43)nc(N3CCOCC3)n2)CC1 [Example 488] | 5600 | 2.8 | 30
10 | COCC(C)N(C)[C@H]1CC[C@H](CNc2nc(N3CCOC[C@H]3C)cc(-n3c(C(F)F)nc4ccccc43)n2)CC1 (stereo partly shown) [Example 507] | 490 | 0.38 | 4.9
11 | FC(F)c1nc2ccccc2n1-c1cc(N2CCOCC2)nc(NC[C@H]2CC[C@H](N3CCCCC3)CC2)n1 [Example 177] | > 3000 | 1.1 | 4.8
12 | C#CCN(CC(C)(C)O)[C@H]1CC[C@H](CNc2nc(N3CCOCC3)cc(-n3c(C(F)F)nc4ccccc43)n2)CC1 [Example 430] | 2300 | 1.8 | 2.3
13 | CN(CCO)[C@H]1CC[C@H](CNc2nc(N3CCOCC3)cc(-n3c(C(F)F)nc4ccccc43)n2)CC1 [Example 274] | > 3000 | 5.5 | 9.7
14 | CCN(CC(C)(C)O)[C@H]1CC[C@H](CNc2nc(N3CCOCC3)cc(-n3c(C(F)F)nc4ccccc43)n2)CC1 [Example 385] |  | 1.9 | 21
15 | FC(F)c1nc2ccccc2n1-c1cc(NC[C@H]2CC[C@H](N3CCC[C@H]3CN3CCCC3)CC2)nc(N2CCOCC2)n1 [Example 527] | 5700 | 2.8 | 14
16 | FC[C@@H]1CCCN1[C@H]1CC[C@H](CNc2nc(N3CCOCC3)cc(-n3c(C(F)F)nc4ccccc43)n2)CC1 [Example 515] | 1200 | 4.1 | 6
17 | COC[C@@H]1CCCN1[C@H]1CC[C@@H](CNc2cc(-n3c(C(F)F)nc4ccccc43)nc(N3CCOCC3)n2)CC1 [Example 512] | > 10000 | 10 | 23
18 | CCCN(CCC)[C@H]1CC[C@H](CNc2nc(N3CCOCC3)cc(-n3c(C(F)F)nc4ccccc43)n2)CC1 [Example 450] | 3500 | 2.1 | 14
19 | C=CCN(CC(C)(C)O)[C@H]1CC[C@H](CNc2nc(N3CCOCC3)cc(-n3c(C(F)F)nc4ccccc43)n2)CC1 [Example 442] | 2700 | 1.2 | 10

Row | SMILES | IC50 (Human PI3Kα) [nM] | IC50 [1] [nM] | IC50 (human PI3Kδ enzyme) [nM]
20 | COCC(C)N[C@H]1CC[C@H](CNc2nc(N3CCOC[C@@H]3C)cc(-n3c(C(F)F)nc4ccccc43)n2)CC1 (stereo partly shown) [Example 446] | 1700 | 1.7 | 8.9
21 | CC(C)C(O)CN(C)[C@H]1CC[C@H](CNc2nc(N3CCOCC3)cc(-n3c(C(F)F)nc4ccccc43)n2)CC1 (stereo partly shown) [Example 398] | 3400 | 2.3 | 32
22 | FC(F)c1nc2ccccc2n1-c1cc(NC[C@H]2CC[C@H](N3CC[C@H](F)C3)CC2)nc(N2CCOCC2)n1 [Example 461] | 3800 | 1.1 | 16
23 | COCCN(C1CC1)[C@H]1CC[C@H](CNc2nc(N3CCOCC3)cc(-n3c(C(F)F)nc4ccccc43)n2)CC1 [Example 246] | 1700 | 2.1 | 5.5
24 | CCN(C(C)COC)[C@H]1CC[C@H](CNc2nc(N3CCOCC3)cc(-n3c(C(F)F)nc4ccccc43)n2)CC1 (stereo partly shown) [Example 435] | 950 | 0.58 | 2.8
25 | COC[C@@H]1CCCN1C1CCC(CNc2nc(N3CCOCC3)cc(-n3c(C(F)F)nc4ccccc43)n2)CC1 (stereo partly shown) [Example 456] | 1800 | 1.1 | 13
26 | COCC(C)N(C)[C@H]1CC[C@H](CNc2nc(N3CCOC[C@@H]3C)cc(-n3c(C(F)F)nc4ccccc43)n2)CC1 (stereo partly shown) [Example 447] | 2900 | 0.77 | 5.3
27 | CC(C)(O)[C@@H]1CCCN1C1CCC(COc2cc(-n3c(C(F)F)nc4ccccc43)nc(N3CCOCC3)n2)CC1 (stereo partly shown) [Example 486] | 3600 | 3.6 | 9.8
28 | C[C@@H]1COCCN1[C@H]1CC[C@H](CNc2cc(-n3c(C(F)F)nc4ccccc43)nc(N3CCOCC3)n2)CC1 [Example 546] | 5500 | 2.2 | 50
29 | CC(N(C)[C@H]1CC[C@H](CNc2nc(N3CCOC[C@@H]3C)cc(-n3c(C(F)F)nc4ccccc43)n2)CC1)C(C)(C)O (stereo partly shown) [Example 505] | 450 | 0.46 | 4.1
30 | FC(F)c1nc2ccccc2n1-c1cc(N2CCOCC2)nc(NC[C@H]2CC[C@H](N3CCOCC3)CC2)n1 [Example 174] | 2400 | 2.4 | 5.9
31 | COCCN(C)[C@H]1CC[C@H](CNc2cc(-n3c(C(F)F)nc4ccccc43)nc(N3CCOCC3)n2)CC1 [Example 497] |  | 2.1 | 16
32 | CC(N(C)[C@H]1CC[C@H](CNc2nc(N3CCOCC3)cc(-n3c(C(F)F)nc4ccccc43)n2)CC1)C(C)(C)O (stereo partly shown) [Example 445] | 3400 | 0.72 | 7
33 | CCN(C(C)COC)[C@H]1CC[C@H](CNc2nc(N3CCOC[C@H]3C)cc(-n3c(C(F)F)nc4ccccc43)n2)CC1 (stereo partly shown) [Example 508] | 620 | 0.37 | 4.6
34 | CC(C)=CCN(CC(C)(C)O)[C@H]1CC[C@H](CNc2nc(N3CCOCC3)cc(-n3c(C(F)F)nc4ccccc43)n2)CC1 [Example 449] | 1300 | 2.2 | 14
35 | FC[C@@H]1CCN1[C@H]1CC[C@H](CNc2cc(-n3c(C(F)F)nc4ccccc43)nc(N3CCOCC3)n2)CC1 [Example 539] | 2200 | 0.84 | 7.6
36 | FC[C@H]1CCCN1[C@H]1CC[C@H](CNc2cc(-n3c(C(F)F)nc4ccccc43)nc(N3CCOCC3)n2)CC1 [Example 511] | 2000 | 1.2 | 4.7
37 | O=C(CN1CCCC1)N[C@H]1CC[C@H](Oc2cc(-n3c(C(F)F)nc4ccccc43)nc(N3CCOCC3)n2)CC1 [Example 473] | 9900 | 4 | 30
